Measured values taken from PMC9029618, “Attenuation of Scopolamine-Induced Amnesia via Cholinergic Modulation in Mice by Synthetic Curcumin Analogs” (Molecules, 2022).
Where two headings read alike, the source gives them in different places.

What was measured:
[1] = test system: scopolamine-induced amnesic mice; experiment: Elevated plus maze (EPM), scopolamine-induced amnesia; format: in vivo
Excerpt: Elevated plus maze paradigm is an important behavioral model for evaluation of anti-amnesic potentials in mice. This apparatus comprised of two open and two closed arms with dimensions of 16 cm × 5 cm × 12 cm and elevated 25 cm from the floor on a wooden stand. The EPM was designed in plus shape from two acrylic sheets having a central platform with dimensions of 5 cm × 5 cm. Initially, mice were placed in one of the open arms in such a way that it was directed away from the central platform. Then TLT was recorded after the mice moved to the closed arm, with their four legs from the open arm and then the mice were returned to their home cage. The time of exploration of the apparatus for each animal was 90 s. […] Reduction of TLT indicated memory-enhancing effect of the test samples. The inflexion ratio (IR) was calculated as: IR=L0−L1/L0 where L1 presents the initial transfer latency (s), and L0 is the retention transfer latency (s).

[2] = biological target: T1, BuChE (Equus caballus, UniProt P81908); experiment: biochemical
T1 construct: The enzymes AChE and BuChE were obtained from electric eel and equine serum, respectively; from tissue; host or cells: equine serum
Experimental: (§1) The in vitro cholinesterase assay of the synthesized curcumin analogs were carried out according to the Ellman’s method with slight modification. The enzymes AChE and BuChE were obtained from electric eel and equine serum, respectively. […] The final concentrations of AChE 0.03 U/mL and 0.01 U/mL of BuChE were achieved. […] The experiment was started by adding 5 µL enzyme solutions to cuvette, then 205 µL test sample and 5 µL DTNB reagents were added. Substrate solution (5 µL) was added, and the solution mixture was kept in a water bath for 15 min at 30 °C.

[3] = biological target: T2, AChE (Electrophorus electricus, UniProt O42275); experiment: biochemical
T2 construct: The enzymes AChE and BuChE were obtained from electric eel and equine serum, respectively; from tissue; host or cells: electric eel
Experimental: as §1

[4] = test system: scopolamine-induced amnesic mice; experiment: Y-maze test, scopolamine-induced amnesia
Experimental: A total of sixteen groups of mice, with six in each group, were used in the experiment. Vehicle treated group (Normal control group) were administered 10 mL/kg (p.o) of normal saline. […] Sample treatment groups were administered 7.5 mg/kg and 15 mg/kg (p.o) of synthesized compounds, respectively.
The dimensions of the arms were 15.5 cm high, 6 cm wide, 20 cm long and connected with each other with an angle of 120°. This test was conducted for a 5 min duration for each animal. The order and number of arm entries made by each animal after placing in one arm were recorded. Complete arm entry in any given arm was considered to be when the hind paws were completely inside, and the alternation was the consecutive arm entries into three different arms by each mouse. Ethanol 70% v/v solution was used to clean the Y-maze arena to avoid olfactory cues between each test. […] Mice were freely allowed to explore the objects when they were initially placed at the center of the apparatus. The formula was used to calculate the %SAP by recording the same arm returns (SAR), alternate arm returns (AAR) and the number of arm entries.

[5] = test system: scopolamine-induced amnesic mice; experiment: Novel object recognition test (NORT), scopolamine-induced amnesia; format: in vivo
Experimental: In this study, the memory-enhancing potentials of synthesized compounds were determined using novel object recognition test mice model. Dimensions of the apparatus were 40 cm × 40 cm × 30 cm and designed from Plexiglass in a box shape. After acclimatization, the mice were habituated with the apparatus for 2–3 min one day before the test. Initially, in the sample phase, two identical objects were placed in the two corners of the apparatus and the mice were allowed to freely explore the apparatus. The objects in the apparatus were explored by each animal either by touching the objects or keeping their noses within 2 cm of them. […] Mice were allowed again to freely explore both the objects in a similar way as in sample phase, and the time spent by each animal exploring the novel and familiar object (F) was recorded.
The following formula was used for calculation of discrimination index. D1=N—F /N+F
D1 = discrimination index; N = novel object; F = familiar object

[6] = biological target: T3, AChE activity in the hippocampi of mice brains (Mus musculus, UniProt P21836); format: in vivo; details: ex vivo, vs scopolamine treated group, n = 6
T3 construct: from tissue; host or cells: mouse bilateral hippocampus homogenate, supernatant
T3 sequence (P21836 32-614): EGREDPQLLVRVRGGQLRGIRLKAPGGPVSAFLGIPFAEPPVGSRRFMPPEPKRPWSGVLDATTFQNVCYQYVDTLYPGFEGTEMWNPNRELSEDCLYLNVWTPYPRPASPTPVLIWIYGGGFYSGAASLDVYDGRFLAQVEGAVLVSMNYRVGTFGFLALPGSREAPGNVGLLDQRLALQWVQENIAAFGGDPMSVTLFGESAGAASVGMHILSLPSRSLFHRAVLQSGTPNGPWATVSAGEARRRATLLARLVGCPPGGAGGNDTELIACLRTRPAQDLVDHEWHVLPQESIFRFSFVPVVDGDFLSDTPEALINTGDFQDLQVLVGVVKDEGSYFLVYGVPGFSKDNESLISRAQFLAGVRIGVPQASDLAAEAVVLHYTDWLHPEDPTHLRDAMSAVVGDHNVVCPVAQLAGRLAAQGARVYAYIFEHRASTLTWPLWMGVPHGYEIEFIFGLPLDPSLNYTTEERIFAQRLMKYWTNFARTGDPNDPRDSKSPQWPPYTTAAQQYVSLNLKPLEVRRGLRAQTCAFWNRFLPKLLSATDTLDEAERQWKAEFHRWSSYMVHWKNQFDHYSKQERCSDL
Experimental: (§2) After the behavioral study, the mice were sacrificed by decapitation, providing a quick and painless death by cervical dislocation. The isolated brain of each animal in chilled phosphate buffer saline was subjected into biomarker assays using AChE and BuChE enzymes.
Mice were sacrificed within 24 h of the behavior study; brains were dissected and stored at −80 °C. […] Supernatant was used for the measurement of cholinesterase (AChE and BuChE) activity.
Acetylcholine/Acetyl cholinesterase assay Kit was used for the determination of AChE activity, according to the standard procedure. The assay was carried out using 96-well plate, and every reaction comprised of 100 µL sample, 200 µM Amplex Red reagent, 50 µM of acetylcholine, 1 U/mL horseradish peroxidase (HRP) and 0.1 U/mL choline oxidase in buffer solution. Incubation period for the reaction mixture was 20 min at room temperature in the dark. The fluorescence intensity at 560 nm excitation and 580 nm emission wavelength was measured.

[7] = biological target: T4, BuChE activity in the hippocampi of mice brains (Mus musculus, UniProt Q03311); experiment: Ex vivo BuChE activity in the brain hippocampus; details: vs scopolamine treated group, n = 6
T4 construct: from tissue; host or cells: mouse bilateral hippocampus homogenate, supernatant
Experimental: as §2
Mice were sacrificed within 24 h of the behavior study; brains were dissected and stored at −80 °C. The bilateral hippocampus was homogenized before the assay into volumes of 0.01 M phosphate buffer (2.7 mM KCl, 137 mM NaCl, 2 mM KH2PO4, 10 mM Na2HPO4) and centrifuged at 4 °C for 30 min at 12,000× g. Supernatant was used for the measurement of cholinesterase (AChE and BuChE) activity.
Butyrylcholinesterase (BuChE) activity of the synthesized compounds were measured according to Ellman method with slight modification. BuSCh was hydrolyzed by BuChE and choline iodide produced, which reacted with DNTB, and then the production of TNB. The TNB was quantitated by calorimetry that indicated the BuChE activity. BuChE assay was accomplished in 96-well plate and every reaction mixture contained 40 µL sample, 80 µL DTNB (0.25 mg/mL) and 70 µL BuSCh (7.5 mM). The absorbance was determined at 37 °C after incubation for 60 min.

[8] = 7.5 mg/kg p.o. 7 days, scopolamine 1 mg/kg i.p.
[9] = 15 mg/kg p.o. 7 days, scopolamine 1 mg/kg i.p.
[10] = BuChE from equine serum, Ellman's method, n = 3, read-out: BuChEI (IC50 (nM))
[11] = AChE from electric eel, Ellman's method, n = 3, read-out: AChEI (IC50 (nM))
[12] = long-term memory (after 24 h), 7.5 mg/kg
[13] = long-term memory (after 24 h), 15 mg/kg
[14] = short-term memory, donepezil 2 mg/kg
[15] = short-term memory, test phase, donepezil 2 mg/kg

T1 sequence (P81908 whole entry): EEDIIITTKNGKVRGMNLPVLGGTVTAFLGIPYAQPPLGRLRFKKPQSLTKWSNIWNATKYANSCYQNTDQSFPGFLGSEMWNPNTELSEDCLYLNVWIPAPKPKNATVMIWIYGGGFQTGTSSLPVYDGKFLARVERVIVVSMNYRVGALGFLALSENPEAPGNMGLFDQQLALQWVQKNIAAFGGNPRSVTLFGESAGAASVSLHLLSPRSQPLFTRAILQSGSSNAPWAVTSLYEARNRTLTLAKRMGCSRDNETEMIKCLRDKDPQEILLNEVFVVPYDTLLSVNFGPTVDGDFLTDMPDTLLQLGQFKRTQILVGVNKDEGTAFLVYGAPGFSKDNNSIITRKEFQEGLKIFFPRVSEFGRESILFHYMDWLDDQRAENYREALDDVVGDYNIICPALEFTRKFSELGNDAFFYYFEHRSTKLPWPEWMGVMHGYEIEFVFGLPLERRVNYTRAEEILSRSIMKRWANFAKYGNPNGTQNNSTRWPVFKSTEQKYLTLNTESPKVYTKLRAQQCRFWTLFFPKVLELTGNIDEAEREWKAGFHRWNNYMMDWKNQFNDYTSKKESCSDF
T2 sequence (O42275 24-633): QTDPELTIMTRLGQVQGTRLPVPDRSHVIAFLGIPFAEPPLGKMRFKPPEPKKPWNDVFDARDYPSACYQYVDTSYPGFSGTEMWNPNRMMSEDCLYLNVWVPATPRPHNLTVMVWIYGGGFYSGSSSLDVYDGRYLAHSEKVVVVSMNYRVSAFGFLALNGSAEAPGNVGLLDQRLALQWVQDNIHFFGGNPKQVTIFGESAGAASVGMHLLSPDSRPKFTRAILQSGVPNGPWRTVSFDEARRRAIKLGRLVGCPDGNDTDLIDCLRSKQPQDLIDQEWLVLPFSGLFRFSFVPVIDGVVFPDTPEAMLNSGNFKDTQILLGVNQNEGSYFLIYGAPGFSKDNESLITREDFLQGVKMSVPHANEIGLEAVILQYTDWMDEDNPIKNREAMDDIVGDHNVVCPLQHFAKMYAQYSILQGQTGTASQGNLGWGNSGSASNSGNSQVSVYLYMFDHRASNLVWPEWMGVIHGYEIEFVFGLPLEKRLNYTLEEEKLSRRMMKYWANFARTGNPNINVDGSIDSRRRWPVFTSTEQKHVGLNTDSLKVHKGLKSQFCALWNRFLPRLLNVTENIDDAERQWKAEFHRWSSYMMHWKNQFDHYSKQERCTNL
T4 sequence (Q03311 30-603): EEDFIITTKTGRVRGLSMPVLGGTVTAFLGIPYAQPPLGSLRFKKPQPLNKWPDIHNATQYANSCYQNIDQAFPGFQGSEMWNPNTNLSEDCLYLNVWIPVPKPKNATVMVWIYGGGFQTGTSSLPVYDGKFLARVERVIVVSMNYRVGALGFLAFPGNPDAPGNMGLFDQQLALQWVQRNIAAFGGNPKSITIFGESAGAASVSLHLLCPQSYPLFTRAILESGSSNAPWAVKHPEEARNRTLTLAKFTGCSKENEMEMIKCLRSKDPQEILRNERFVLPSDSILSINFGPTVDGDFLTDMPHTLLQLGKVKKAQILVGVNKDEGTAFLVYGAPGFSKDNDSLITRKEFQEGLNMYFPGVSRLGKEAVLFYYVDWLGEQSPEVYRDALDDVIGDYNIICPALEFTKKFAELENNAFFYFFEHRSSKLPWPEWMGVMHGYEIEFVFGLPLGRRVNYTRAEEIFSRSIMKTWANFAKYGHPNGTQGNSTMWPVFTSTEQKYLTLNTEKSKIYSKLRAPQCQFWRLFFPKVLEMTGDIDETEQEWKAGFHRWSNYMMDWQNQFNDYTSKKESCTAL

| Compound | effect on TLT vs amnesic group [1, 8] | effect on TLT vs amnesic group [1, 9] | IC50 [2, 10] [nM] | IC50 [3, 11] [nM] | % spontaneous alternation performance (% SAP) [4, 8] | % spontaneous alternation performance (% SAP) [4, 9] | discrimination index (DI) [5, 12] | discrimination index (DI) [5, 13] | discrimination index (DI) ([5]; short-term memory, 7.5 mg/kg) | discrimination index (DI) ([5]; short-term memory, 15 mg/kg) | effect on scopolamine-increased AChE activity in hippocampus [6] | other results |
| --- | --- | --- | --- | --- | --- | --- | --- | --- | --- | --- | --- | --- |
| O=C(/C=C/c1ccccc1)CC(=O)/C=C/c1ccccc1 [Compound 1a, (1E,6E)-1,7-diphenylhepta-1,6-diene-3,5-dione] | non-significant | non-significant | 5350 | 2620 | poor response | poor response | no significant change | no significant change | 54.53% | 55.10% |  |  |
| Cc1ccc(/C=C/C(=O)CC(=O)/C=C/c2ccc(C)cc2)cc1 [Compound 1b, (1E,6E)-1,7-di-p-tolylhepta-1,6-diene-3,5-dione] | non-significant | poor response | 2160 | 734 | poor response | poor response | 52.45% | 53.61% | 55.68% | 57.47% | markedly reduced the increased activity of AChE |  |
| COc1ccc(/C=C/C(=O)CC(=O)/C=C/c2ccc(OC)cc2)cc1 [Compound 1c, (1E,6E)-1,7-bis(4-methoxyphenyl)hepta-1,6-diene-3,5-dione] | reduced TLT | reduced TLT | 1360 | 467 | 47.16 ± 2.77% | 62.33 ± 184% | 60.58% | 62.28% | 60.16% | 61.25% | markedly reduced the increased activity of AChE | effect on scopolamine-increased BuChE activity in hippocampus [7]: decreased the increased BuChE activity |
| O=C(/C=C/c1ccc(Cl)cc1)CC(=O)/C=C/c1ccc(Cl)cc1 [Compound 1d, (1E,6E)-1,7-bis(4-chlorophenyl)hepta-1,6-diene-3,5-dione] | significantly reduced TLT | significantly reduced TLT | 378 | 113 | 55.66 ± 2.82% | 67.66 ± 2.84% | 63.78% | 64.61% | 61.43% | 62.03% | markedly reduced the increased activity of AChE | effect on scopolamine-increased BuChE activity in hippocampus [7]: decreased the increased BuChE activity |
| CN(C)c1ccc(/C=C/C(=O)CC(=O)/C=C/c2ccc(N(C)C)cc2)cc1 [Compound 1e, (1E,6E)-1,7-bis(4-(dimethylamino)phenyl)hepta-1,6-diene-3,5-dione] | non-significant | non-significant | 6640 | 3270 | non-significant | non-significant | no significant change | no significant change | no promising potential | no promising potential |  |  |
| O=C(/C=C/c1ccc([N+](=O)[O-])cc1)CC(=O)/C=C/c1ccc([N+](=O)[O-])cc1 [Compound 1f, (1E,6E)-1,7-bis(4-nitrophenyl)hepta-1,6-diene-3,5-dione] | non-significant | non-significant |  |  | non-significant | non-significant | no significant change | no significant change | no promising potential | no promising potential |  | IC50 [2]: 9660 nM; IC50 [3]: 5840 nM |
| COc1cc2c(cc1OC)C(=O)C(CC1CCN(Cc3ccccc3)CC1)C2 (stereo not drawn) [Donepezil, reference compound] |  |  |  |  |  |  |  |  |  |  |  | transfer latency time (TLT) ([1]; donepezil 2 mg/kg p.o. 7 days, scopolamine 1 mg/kg i.p., p < 0.001 vs amnesic group): 34.57 ± 1.93 s; % DI, familiar object [5, 14]: 32.32%; % DI, novel object [5, 14]: 65.26%; time spent exploring the familiar object [5, 15]: 11.49 ± 1.39 s; time spent exploring the novel object [5, 15]: 21.59 ± 1.44 s |
| CN1[C@@H]2C[C@@H](OC(=O)[C@H](CO)c3ccccc3)C[C@H]1[C@@H]1O[C@@H]12 [Scopolamine] |  |  |  |  |  |  |  |  |  |  |  | TLT vs vehicle treated group ([1]; scopolamine 1 mg/kg i.p. alone (amnesic group)): significantly higher transfer latency time; % spontaneous alternation performance (% SAP) ([4]; scopolamine 1 mg/kg i.p. alone (amnesic group), normal controls 70.16 ± 4.58): 37.66 ± 3.94% |
